Test results from US20250229068A1, “ELECTROCONDUCTIVE MICRONEEDLE FOR DRUG DELIVERY INTO DEEP TISSUE” (The University of Hong Kong, priority 2024, published 2025).

Tested on: CGRP gene expression in PC-12 cells
Experiment: RT-qPCR of CGRP gene in PC-12 cells
Assay type: cell-based
Details: miconazole and electric current together (0.5 mA, 5 mins), 24 h
Procedure: PC-12 cells are cultures with 10% FBS and 1% Penicillin-Streptomycin supplemented with DMEM and incubated in a humidified incubator (37° C., 5% CO2). For the experiment, 5×10^4 cells per well are seeded on to 24 well plates and incubate for 24 hours to form a uniform monolayer. After that, miconazole nitrate ([…]) and electrical stimulation (0.5 mA, 5 mins) are given as treatment. Further, untreated cells are served as a control. After the treatment, medium is changed for electrical stimulation group and incubate for another 24 h. After that, total RNA is extracted from the treated cells using RNeasy Mini Kit (Qiagen, Hilden, Germany) and checked the purity using NanoDrop (Thermo Fisher Scientific, USA). Next, RNA is reversely transcribed into cDNA using the First Strand cDNA kit (Takara, DaLian, China). Real-time quantitative PCR reaction is performed with cDNA using TB green Premix. The mean cycle threshold (Ct) value of each target gene is normalized to the housekeeping genes (i.e., GAPDH).
It is hypothesized that the miconazole nitrate molecules released from the electroconductive MNs may also trigger the release of the calcitonin gene-related peptide (CGRP) from nociceptive neurons under electrical stimulation. […]

Clc1ccc(COC(Cn2ccnc2)c2ccc(Cl)cc2Cl)c(Cl)c1 (stereo not shown) [miconazole, miconazole nitrate]
increase in the expression of CGRP: ~3 fold
